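How tested: cells in 96-well plates exposed to compound for 48 hours at five concentrations. GI50: concentration for 50% inhibition of growth. The concentration for full growth arrest is given as TGI.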
Tests used:
Test in all cases: DTP human tumour cell line panel, 48 h
OVCAR-3 ovarian = system: OVCAR-3 ovarian
RPMI-8226 leukemia = system: RPMI-8226 leukemia
ACHN renal = system: ACHN renal
CAKI-1 renal = system: CAKI-1 renal
OVCAR-8 ovarian = system: OVCAR-8 ovarian
A549 NSCLC = system: A549 NSCLC
SF-539 CNS = system: SF-539 CNS
M14 melanoma = system: M14 melanoma
UO-31 renal = system: UO-31 renal
BT-549 breast = system: BT-549 breast

COc1ccc(C=O)cc1O[Si](C)(C)C(C)(C)C
TGI (OVCAR-3 ovarian): > 100 µM | TGI (RPMI-8226 leukemia): > 100 µM | TGI (ACHN renal): > 100 µM | TGI (CAKI-1 renal): > 100 µM | TGI (OVCAR-8 ovarian): > 100 µM | TGI (A549 NSCLC): > 100 µM | TGI (SF-539 CNS): > 100 µM | TGI (M14 melanoma): > 100 µM | TGI (UO-31 renal): > 100 µM

COC(=O)C(=O)CC(=O)CCn1[nH]c(=O)c(Cl)c(Cl)c1=O
TGI (OVCAR-3 ovarian): > 100 µM | TGI (ACHN renal): > 100 µM | TGI (CAKI-1 renal): > 100 µM | TGI (OVCAR-8 ovarian): > 100 µM | TGI (A549 NSCLC): > 100 µM | TGI (SF-539 CNS): > 100 µM | TGI (M14 melanoma): > 100 µM | TGI (UO-31 renal): > 100 µM

COC(=O)c1ccc2[nH]c(O)c(C(=Nc3ccc(N(C)C(=O)CN4CCN(C)CC4)cc3)c3ccc4c(c3)OCO4)c2c1
GI50 (BT-549 breast): 1.06 µM | TGI (BT-549 breast): 2.47 µM | GI50 (OVCAR-3 ovarian): 0.638 µM | TGI (OVCAR-3 ovarian): 2.23 µM | GI50 (RPMI-8226 leukemia): 0.655 µM | TGI (RPMI-8226 leukemia): 2.83 µM | GI50 (ACHN renal): 1.58 µM | TGI (ACHN renal): 7.11 µM | GI50 (CAKI-1 renal): 0.26 µM | TGI (CAKI-1 renal): 4.07 µM | GI50 (OVCAR-8 ovarian): 0.774 µM | TGI (OVCAR-8 ovarian): 7.34 µM | GI50 (A549 NSCLC): 1.09 µM | TGI (A549 NSCLC): 4.12 µM | GI50 (SF-539 CNS): 0.341 µM | TGI (SF-539 CNS): 1.31 µM | GI50 (M14 melanoma): 0.538 µM | TGI (M14 melanoma): 1.8 µM | GI50 (UO-31 renal): 1.3 µM | TGI (UO-31 renal): 3.71 µM

O=C(O)CCCc1ccc2ccc3ccccc3c2c1
TGI (BT-549 breast): > 100 µM | TGI (OVCAR-3 ovarian): > 100 µM | TGI (RPMI-8226 leukemia): > 100 µM | TGI (ACHN renal): > 100 µM | TGI (CAKI-1 renal): > 100 µM | TGI (OVCAR-8 ovarian): > 100 µM | TGI (A549 NSCLC): > 100 µM | TGI (M14 melanoma): > 100 µM | TGI (UO-31 renal): > 100 µM

O=C1N/C(=C\[N+](=O)[O-])c2ccccc21
TGI (OVCAR-3 ovarian): > 100 µM | TGI (RPMI-8226 leukemia): > 100 µM | TGI (ACHN renal): > 100 µM | TGI (OVCAR-8 ovarian): > 100 µM | TGI (A549 NSCLC): > 100 µM | TGI (SF-539 CNS): > 100 µM | TGI (M14 melanoma): > 100 µM | TGI (UO-31 renal): > 100 µM

CCC[CH2][Sn]([CH2]CCC)([O]C(=O)CN)[O]C(=O)CN
GI50 (OVCAR-3 ovarian): 27.8 µM | TGI (OVCAR-3 ovarian): > 100 µM | GI50 (RPMI-8226 leukemia): 15.3 µM | TGI (RPMI-8226 leukemia): 54.5 µM | GI50 (ACHN renal): 48.1 µM | TGI (ACHN renal): > 100 µM | GI50 (CAKI-1 renal): 14.7 µM | TGI (CAKI-1 renal): 51.1 µM | GI50 (OVCAR-8 ovarian): 69 µM | TGI (OVCAR-8 ovarian): > 100 µM | GI50 (A549 NSCLC): > 100 µM | TGI (A549 NSCLC): > 100 µM | GI50 (SF-539 CNS): 57 µM | TGI (SF-539 CNS): > 100 µM | GI50 (M14 melanoma): 36.7 µM | TGI (M14 melanoma): > 100 µM | GI50 (UO-31 renal): > 100 µM | TGI (UO-31 renal): > 100 µM

COc1cc(C2c3cc4c(cc3OC(C)(N3CCCC3)C2C)OCO4)cc(OC)c1OC (stereo not given)
TGI (BT-549 breast): 12.2 µM | TGI (OVCAR-3 ovarian): 0.528 µM | TGI (RPMI-8226 leukemia): 11.7 µM | TGI (ACHN renal): > 79.9 µM | TGI (CAKI-1 renal): > 20.2 µM | TGI (A549 NSCLC): > 100 µM | TGI (SF-539 CNS): 0.716 µM | TGI (M14 melanoma): 4.81 µM | TGI (UO-31 renal): 57 µM

COc1cc(NCC(C#N)C#N)ccc1N=Nc1ccc(Cl)cc1
TGI (OVCAR-3 ovarian): 38.4 µM | TGI (RPMI-8226 leukemia): 92.3 µM | TGI (ACHN renal): > 100 µM | TGI (OVCAR-8 ovarian): > 100 µM | TGI (A549 NSCLC): > 100 µM | TGI (SF-539 CNS): 51.6 µM | TGI (M14 melanoma): 33.5 µM | TGI (UO-31 renal): 52.5 µM

COc1cc(NS(=O)(=O)c2ccc(C)cc2)c2nccnc2c1
TGI (OVCAR-3 ovarian): > 100 µM | TGI (RPMI-8226 leukemia): > 100 µM | TGI (ACHN renal): 80.8 µM | TGI (CAKI-1 renal): > 100 µM | TGI (OVCAR-8 ovarian): > 100 µM | TGI (A549 NSCLC): > 100 µM | TGI (SF-539 CNS): 83.8 µM | TGI (M14 melanoma): 35.1 µM | TGI (UO-31 renal): > 100 µM

O=C1C=C(Nc2ccccc2C(=O)CC(=O)C(=O)Nc2cccc([N+](=O)[O-])c2)c2ccccc2C1=O
TGI (OVCAR-3 ovarian): 55.2 µM | TGI (RPMI-8226 leukemia): 53.6 µM | TGI (ACHN renal): > 100 µM | TGI (CAKI-1 renal): > 100 µM | TGI (OVCAR-8 ovarian): > 100 µM | TGI (A549 NSCLC): > 100 µM | TGI (SF-539 CNS): > 100 µM | TGI (M14 melanoma): > 100 µM | TGI (UO-31 renal): > 100 µM

COc1ccc([C@@]2(O)c3c(ccc(O)c3OC)[C@H]2OC)c(OC)c1
TGI (OVCAR-3 ovarian): > 100 µM | TGI (RPMI-8226 leukemia): > 100 µM | TGI (ACHN renal): > 100 µM | TGI (CAKI-1 renal): > 100 µM | TGI (OVCAR-8 ovarian): > 100 µM | TGI (A549 NSCLC): > 100 µM | TGI (M14 melanoma): > 100 µM | TGI (UO-31 renal): > 100 µM

CC(=O)C1C(c2ccccc2)C2(C)OC(=O)C(C#N)C12C (stereo not given)
TGI (OVCAR-3 ovarian): > 100 µM | TGI (RPMI-8226 leukemia): > 100 µM | TGI (ACHN renal): > 100 µM | TGI (OVCAR-8 ovarian): > 100 µM | TGI (A549 NSCLC): > 100 µM | TGI (SF-539 CNS): > 100 µM | TGI (M14 melanoma): > 100 µM | TGI (UO-31 renal): > 100 µM

N#C/C(=C/c1cccc(Oc2ccccc2)c1)c1ccccc1
TGI (RPMI-8226 leukemia): > 100 µM | TGI (ACHN renal): > 100 µM | TGI (CAKI-1 renal): > 100 µM | TGI (OVCAR-8 ovarian): > 100 µM | TGI (A549 NSCLC): > 100 µM | TGI (SF-539 CNS): > 100 µM | TGI (M14 melanoma): > 100 µM | TGI (UO-31 renal): > 100 µM

Cc1ccc(S(=O)(=O)N=Nc2c(O)[nH]c3cc(O)c(C(=O)O)cc23)cc1
TGI (BT-549 breast): > 100 µM | TGI (OVCAR-3 ovarian): > 100 µM | TGI (RPMI-8226 leukemia): > 100 µM | TGI (ACHN renal): > 100 µM | TGI (CAKI-1 renal): > 100 µM | TGI (OVCAR-8 ovarian): > 100 µM | TGI (A549 NSCLC): > 100 µM | TGI (M14 melanoma): > 100 µM | TGI (UO-31 renal): > 100 µM

C=C(C)C1CC2(C)C(C)CC(O)CC2C(OC(=O)C=C(C)C)C1O (stereo not given)
TGI (BT-549 breast): > 100 µM | TGI (ACHN renal): 52 µM | TGI (CAKI-1 renal): > 100 µM | TGI (OVCAR-8 ovarian): > 100 µM | TGI (A549 NSCLC): > 100 µM | TGI (SF-539 CNS): > 100 µM | TGI (M14 melanoma): > 100 µM | TGI (UO-31 renal): 74.4 µM

CCOC(=O)[CH-]C(=O)C12CC3CC(CC(C3)C1)C2.CCOC(=O)[CH-]C(=O)C12CC3CC(CC(C3)C1)C2.CC[O-].CC[O-].[Ti+4]
GI50 (OVCAR-3 ovarian): > 100 µM | TGI (OVCAR-3 ovarian): > 100 µM | GI50 (RPMI-8226 leukemia): > 100 µM | TGI (RPMI-8226 leukemia): > 100 µM | GI50 (ACHN renal): > 100 µM | TGI (ACHN renal): > 100 µM | GI50 (CAKI-1 renal): > 100 µM | TGI (CAKI-1 renal): > 100 µM | GI50 (OVCAR-8 ovarian): > 100 µM | TGI (OVCAR-8 ovarian): > 100 µM | GI50 (A549 NSCLC): > 100 µM | TGI (A549 NSCLC): > 100 µM | GI50 (SF-539 CNS): > 100 µM | TGI (SF-539 CNS): > 100 µM | GI50 (M14 melanoma): > 100 µM | TGI (M14 melanoma): > 100 µM | GI50 (UO-31 renal): > 100 µM | TGI (UO-31 renal): > 100 µM

O=S(=O)(C1=CC(S(=O)(=O)c2ccccc2)CN(Cc2ccccc2)C1c1cccc2ccccc12)c1ccccc1 (stereo not given)
TGI (OVCAR-3 ovarian): > 69 µM | TGI (RPMI-8226 leukemia): > 69 µM | TGI (ACHN renal): > 69 µM | TGI (CAKI-1 renal): > 69 µM | TGI (OVCAR-8 ovarian): > 69 µM | TGI (A549 NSCLC): > 69 µM | TGI (SF-539 CNS): > 69 µM | TGI (M14 melanoma): > 69 µM | TGI (UO-31 renal): > 69 µM

CNC(=O)OCc1c(COC(=O)NC)c(-c2ccc(-c3ccccc3)cc2)n(C)c1C
TGI (BT-549 breast): 7.11 µM | TGI (OVCAR-3 ovarian): 7.88 µM | TGI (ACHN renal): 4.27 µM | TGI (CAKI-1 renal): 5.14 µM | TGI (OVCAR-8 ovarian): 10.4 µM | TGI (A549 NSCLC): 14.1 µM | TGI (SF-539 CNS): 8.37 µM | TGI (M14 melanoma): 6.84 µM | TGI (UO-31 renal): 3.1 µM

CC(=O)Oc1cc2c(cc1OC(C)=O)C1(C)CCC2(C)c2cc(OC(C)=O)c(OC(C)=O)cc21
TGI (OVCAR-3 ovarian): 29.7 µM | TGI (RPMI-8226 leukemia): 50.3 µM | TGI (ACHN renal): > 100 µM | TGI (CAKI-1 renal): 90.5 µM | TGI (OVCAR-8 ovarian): > 100 µM | TGI (A549 NSCLC): > 100 µM | TGI (M14 melanoma): 90.5 µM | TGI (UO-31 renal): 89.1 µM

CCCC1(CC(=O)O)OCCc2c1[nH]c1ccccc21 (stereo not given)
TGI (OVCAR-3 ovarian): > 100 µM | TGI (RPMI-8226 leukemia): > 100 µM | TGI (ACHN renal): > 100 µM | TGI (CAKI-1 renal): > 100 µM | TGI (OVCAR-8 ovarian): > 100 µM | TGI (A549 NSCLC): > 100 µM | TGI (SF-539 CNS): > 100 µM | TGI (M14 melanoma): > 100 µM | TGI (UO-31 renal): > 100 µM

O=C(Nc1cccc(O)c1)C(=O)C1C(=O)NC(=S)NC1=O
TGI (OVCAR-3 ovarian): > 100 µM | TGI (RPMI-8226 leukemia): > 100 µM | TGI (ACHN renal): > 100 µM | TGI (CAKI-1 renal): > 100 µM | TGI (OVCAR-8 ovarian): > 100 µM | TGI (A549 NSCLC): > 100 µM | TGI (SF-539 CNS): > 100 µM | TGI (M14 melanoma): > 100 µM | TGI (UO-31 renal): > 100 µM

Source: PubChem BioAssay (NCI)
